This note sets out measurements from patent publication US9981942B2, “Piperidine derivatives having multimodal activity against pain” (LABORATORIOS DEL DR. ESTEVE S.A., priority 2013, dated 2018).

A value given as a limit tells only on which side of the number the result lay.

In one assay the test system is σ1 receptor and the μ-opiod receptor. In words: μ and σ1 dual binding: combined class from the Ki of both radioligand assays. On the set-up: species or system human; key to μ and σ1 dual binding: +: Both Ki-μ and Ki-σ1>=500 nM; ++: One Ki<500 nM while the other Ki is >=500 nM; +++: Both Ki-μ and Ki-σ1<500 nM; ++++: Both Ki-μ and Ki-σ1<100 nM. The settings on record: combined class for Ki-μ and Ki-σ1; transfected HEK-293 membranes (σ1), transfected CHO-K1 cell membranes (μ). In outline: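 Classes combine both Ki values, split at 500 nM and 100 nM. Human μ-opioid binding used 1 nM [3H]-DAMGO on CHO-K1 membranes (27 °C, 60 min, pH 7.4, naloxone 10 μM for NSB); human σ1 used 5 nM [3H](+)-pentazocine on HEK-293 membranes (37 °C, 120 min, pH 8, haloperidol 10 μM for NSB).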
On to `CS(=O)(=O)Nc1cccc(C2CCN(Cc3nnc(-c4ccccc4)o3)CC2)c1` [Example 175, N-(3-(1-((5-phenyl-1,3,4-oxadiazol-2-yl)methyl)piperidin-4-yl)phenyl)methanesulfonamide], for which the “μ and σ1 dual binding” value is “++”. With `CC(C)S(=O)(=O)Nc1cccc(C2CCN(Cc3cc(-c4ccccn4)no3)CC2)c1` [Example 181, N-(3-(1-((3-(pyridin-2-yl)isoxazol-5-yl)methyl)piperidin-4-yl)phenyl)propane-2-sulfonamide], the “μ and σ1 dual binding” value was “++”. For `CS(=O)(=O)Nc1cccc(C2CCN(Cc3ncn(-c4ccccc4)n3)CC2)c1` [Example 182, N-(3-(1-((1-phenyl-1H-1,2,4-triazol-3-yl)methyl)piperidin-4-yl)phenyl)methanesulfonamide], the “μ and σ1 dual binding” value is recorded as “++”.

Regarding `CS(=O)(=O)Nc1cccc(C2CCN(Cc3cncn3Cc3ccccc3)CC2)c1` [Example 185, N-(3-(1-((1-benzyl-1H-imidazol-5-yl)methyl)piperidin-4-yl)phenyl)methanesulfonamide], the “μ and σ1 dual binding” value is listed as “++”.

Consider `CC(C)S(=O)(=O)Nc1cccc(C2CCN(Cc3cn(Cc4ccccn4)cn3)CC2)c1` [Example 186, N-(3-(1-((1-(pyridin-2-ylmethyl)-1H-imidazol-4-yl)methyl)piperidin-4-yl)phenyl)propane-2-sulfonamide], for which the “μ and σ1 dual binding” value is given as “++”.

`CC(C)S(=O)(=O)Nc1cccc(C2CCN(Cc3cncn3Cc3ccccn3)CC2)c1` [Example 187, N-(3-(1-((1-(pyridin-2-ylmethyl)-1H-imidazol-5-yl)methyl)piperidin-4-yl)phenyl)propane-2-sulfonamide]: the “μ and σ1 dual binding” value is “++”.

With `Oc1cccc(C2CCN(Cc3cn(Cc4ccccn4)cn3)CC2)c1` [Example 188, 3-(1-((1-(pyridin-2-ylmethyl)-1H-imidazol-4-yl)methyl)piperidin-4-yl)phenol], the “μ and σ1 dual binding” value is “++”. Same read-out and setting: under `Oc1cccc(C2CCN(Cc3cn(Cc4ncccc4F)cn3)CC2)c1` [Example 189, 3-(1-((1-((3-fluoropyridin-2-yl)methyl)-1H-imidazol-4-yl)methyl)piperidin-4-yl)phenol] stands “++”; under `CS(=O)(=O)Nc1cccc(C2CCN(Cc3cn(-c4ccccc4)nn3)CC2)n1` [Example 191, N-(6-(1-((1-phenyl-1H-1,2,3-triazol-4-yl)methyl)piperidin-4-yl)pyridin-2-yl)methanesulfonamide], “++”. For `CCC(=O)Nc1ccnc(C2CCN(Cc3cn(-c4ccccc4)nn3)CC2)c1` [Example 192, N-(2-(1-((1-phenyl-1H-1,2,3-triazol-4-yl)methyl)piperidin-4-yl)pyridin-4-yl)propionamide], the “μ and σ1 dual binding” value was “++”. As to `CCC(=O)Nc1cccc(C2CCN(Cc3cn(Cc4ccccc4)nn3)CC2)n1` [Example 199, N-(6-(1-((1-benzyl-1H-1,2,3-triazol-4-yl)methyl)piperidin-4-yl)pyridin-2-yl)propionamide], the “μ and σ1 dual binding” value is listed as “++”. Still for that read-out and setting: under `CCC(=O)Nc1cccc(C2CCN(Cc3cn([C@@H]4c5ccccc5C[C@H]4O)nn3)CC2)n1` [Example 204, N-(6-(1-((1-((1R,2R)-2-hydroxy-2,3-dihydro-1H-inden-1-yl)-1H-1,2,3-triazol-4-yl)methyl)piperidin-4-yl)pyridin-2-yl)propionamide] stands “++”; under `Oc1ncccc1C1CCN(Cc2cn(-c3ccccc3)nn2)CC1` [Example 205, 3-(1-((1-phenyl-1H-1,2,3-triazol-4-yl)methyl)piperidin-4-yl)pyridin-2-ol], “++”.

Staying with this assay, now noted: transfected HEK-293 membranes (σ1), transfected CHO-K1 cell membranes (μ).
For the compound `Oc1cccc(C2CCN(Cc3cnn(Cc4ccccn4)c3)CC2)c1` [Example 171, 3-(1-((1-(pyridin-2-ylmethyl)-1H-pyrazol-4-yl)methyl)piperidin-4-yl)phenol], the Ki range for both μ and σ1 (dual-binding class) was < 500 nM.

Take `Oc1cccc(C2CCN(Cc3cnn(Cc4ncccc4F)c3)CC2)c1` [Example 172, 3-(1-((1-((3-fluoropyridin-2-yl)methyl)-1H-pyrazol-4-yl)methyl)piperidin-4-yl)phenol]: the Ki range for both μ and σ1 (dual-binding class) is < 500 nM. For the compound `Oc1cccc(C2CCN(Cc3cnn(Cc4ccc(F)cn4)c3)CC2)c1` [Example 173, 3-(1-((1-((5-fluoropyridin-2-yl)methyl)-1H-pyrazol-4-yl)methyl)piperidin-4-yl)phenol], the Ki range for both μ and σ1 (dual-binding class) was < 500 nM. `CS(=O)(=O)Nc1cccc(C2CCN(Cc3cc(-c4ccccc4)no3)CC2)c1` [Example 174, N-(3-(1-((3-phenylisoxazol-5-yl)methyl)piperidin-4-yl)phenyl)methanesulfonamide]: the Ki range for both μ and σ1 (dual-binding class) is < 100 nM.

`Oc1cccc(C2CCN(Cc3cc(-c4ccccc4)no3)CC2)c1` [Example 176, 3-(1-((3-phenylisoxazol-5-yl)methyl)piperidin-4-yl)phenol]: the Ki range for both μ and σ1 (dual-binding class) is < 100 nM. The same measure, in the same setting: under `Oc1cccc(C2CCN(Cc3cc(Cc4ccccc4)no3)CC2)c1` [Example 177, 3-(1-((3-benzylisoxazol-5-yl)methyl)piperidin-4-yl)phenol] stands < 100 nM; under `CS(=O)(=O)Nc1cccc(C2CCN(Cc3cc(Cc4ccccc4)no3)CC2)c1` [Example 178, N-(3-(1-((3-benzylisoxazol-5-yl)methyl)piperidin-4-yl)phenyl)methanesulfonamide], < 500 nM; under `CS(=O)(=O)Nc1ccc(F)c(C2CCN(Cc3cc(-c4ccccc4)no3)CC2)c1` [Example 179, N-(4-fluoro-3-(1-((3-phenylisoxazol-5-yl)methyl)piperidin-4-yl)phenyl)methanesulfonamide], < 500 nM. Turning to `CS(=O)(=O)Nc1cc(C2CCN(Cc3cc(-c4ccccc4)no3)CC2)ccc1F` [Example 180, N-(2-fluoro-5-(1-((3-phenylisoxazol-5-yl)methyl)piperidin-4-yl)phenyl)methanesulfonamide], the Ki range for both μ and σ1 (dual-binding class) is < 500 nM. Regarding `CS(=O)(=O)Nc1cccc(C2CCN(Cc3cn(Cc4ccccc4)cn3)CC2)c1` [Example 183, N-(3-(1-((1-benzyl-1H-imidazol-4-yl)methyl)piperidin-4-yl)phenyl)methanesulfonamide], the Ki range for both μ and σ1 (dual-binding class) was < 500 nM.

Turning to `Oc1cccc(C2CCN(Cc3cn(Cc4ccccc4)cn3)CC2)c1` [Example 184, 3-(1-((1-benzyl-1H-imidazol-4-yl)methyl)piperidin-4-yl)phenol], the Ki range for both μ and σ1 (dual-binding class) is < 100 nM. Regarding `CCC(=O)Nc1cccc(C2CCN(Cc3cn(-c4ccccc4)nn3)CC2)n1` [Example 190, N-(6-(1-((1-phenyl-1H-1,2,3-triazol-4-yl)methyl)piperidin-4-yl)pyridin-2-yl)propionamide], the Ki range for both μ and σ1 (dual-binding class) is < 500 nM. Regarding `CS(=O)(=O)Nc1ccnc(C2CCN(Cc3cn(-c4ccccc4)nn3)CC2)c1` [Example 193, N-(2-(1-((1-phenyl-1H-1,2,3-triazol-4-yl)methyl)piperidin-4-yl)pyridin-4-yl)methanesulfonamide], the Ki range for both μ and σ1 (dual-binding class) was ≥ 500 nM. The same measure, in the same setting: under `CS(=O)(=O)Nc1cncc(C2CCN(Cc3cn(-c4ccccc4)nn3)CC2)c1` [Example 194, N-(5-(1-((1-phenyl-1H-1,2,3-triazol-4-yl)methyl)piperidin-4-yl)pyridin-3-yl)methanesulfonamide] stands ≥ 500 nM. As to `CCC(=O)Nc1cncc(C2CCN(Cc3cn(-c4ccccc4)nn3)CC2)c1` [Example 195, N-(5-(1-((1-phenyl-1H-1,2,3-triazol-4-yl)methyl)piperidin-4-yl)pyridin-3-yl)propionamide], the Ki range for both μ and σ1 (dual-binding class) was ≥ 500 nM. With `CCC(=O)Nc1cc(C2CCN(Cc3cn(-c4ccccc4)nn3)CC2)ccn1` [Example 196, N-(4-(1-((1-phenyl-1H-1,2,3-triazol-4-yl)methyl)piperidin-4-yl)pyridin-2-yl)propionamide], the Ki range for both μ and σ1 (dual-binding class) is ≥ 500 nM. For `CS(=O)(=O)Nc1cc(C2CCN(Cc3cn(-c4ccccc4)nn3)CC2)ccn1` [Example 197, N-(4-(1-((1-phenyl-1H-1,2,3-triazol-4-yl)methyl)piperidin-4-yl)pyridin-2-yl)methanesulfonamide], the Ki range for both μ and σ1 (dual-binding class) was ≥ 500 nM. For the compound `Oc1cccc(C2CCN(Cc3cn(-c4ccccc4)nn3)CC2)n1` [Example 198, 6-(1-((1-phenyl-1H-1,2,3-triazol-4-yl)methyl)piperidin-4-yl)pyridin-2-ol], the Ki range for both μ and σ1 (dual-binding class) is ≥ 500 nM. The same measure, in the same setting: next, `CS(=O)(=O)Nc1cccc(C2CCN(Cc3cc(-c4ccccc4)no3)CC2)n1` [Example 200, N-(6-(1-((3-phenylisoxazol-5-yl)methyl)piperidin-4-yl)pyridin-2-yl)methanesulfonamide]: < 500 nM; `CCC(=O)Nc1cccc(C2CCN(Cc3cc(-c4ccccc4)no3)CC2)n1` [Example 201, N-(6-(1-((3-phenylisoxazol-5-yl)methyl)piperidin-4-yl)pyridin-2-yl)propionamide]: < 500 nM; `CCC(=O)Nc1cccc(C2CCN(Cc3cnn(-c4ccccc4)c3)CC2)n1` [Example 202, N-(6-(1-((1-phenyl-1H-pyrazol-4-yl)methyl)piperidin-4-yl)pyridin-2-yl)propionamide]: < 100 nM.

In the case of `CS(=O)(=O)Nc1cccc(C2CCN(Cc3cnn(-c4ccccc4)c3)CC2)n1` [Example 203, N-(6-(1-((1-phenyl-1H-pyrazol-4-yl)methyl)piperidin-4-yl)pyridin-2-yl)methanesulfonamide], the Ki range for both μ and σ1 (dual-binding class) is < 500 nM.
